Patent US9657024B2, “Substituted triazolo-pyrimidine compounds for modulating cell proliferation, differentiation and survival” (STATegics, Inc., priority 2012, dated 2017)

Experiments:
[1] = tested on: PC12 cells; test: PC12 cell survival under serum deprivation (CellTiter-Glo); type: cell-based, rat; settings: 72 hours; for minimal effective concentration: Rattus norvegicus, PC-12, NS = RLU increased <25% at 5 uM, read-out: PC12 cell proliferation (CellTiter-Glo ®) Concentration at which RLU increased >25% compared to medium control
Protocol: Each culture condition was performed in quadruplicate in each experiment and the mean values were calculated. The results represent mean±SEM of relative light unit values when compared to the mean values obtained in the presence of the medium alone. A total of 13 experiments were performed and the statistical significance was analyzed using GraphPad Prism software using ANOVA, followed by paired t-test. The symbol * indicates P-values<0.01.
PC12 cells were cultured in DMEM supplemented with 10% fetal calf serum and 5% horse serum. […] Cell viability was analyzed by CellTiter-Glo® reagent (Promega).
PC12 cells were cultured in DMEM supplemented with 10% fetal calf serum and 5% horse serum. […] Cell survival of the serum-starved cells was analyzed by CellTiter-Glo® reagent luminescence reading.
FIG. 2 illustrates neuroprotective effects of Compounds 1-5 when tested in PC12 cell protection assays. PC12 cells were subjected to serum deprivation as described under FIG. 1.
PC12 cells were cultured in DMEM supplemented with 10% fetal calf serum and 5% horse serum. […] Cell survival of the serum-starved cells was analyzed by CellTiter-Glo® reagent luminescence reading (relative light units, “RLU”). […] “NS” indicates RLU increased <25% when compounds were tested at 5 uM.

[2] = tested on: primary dopaminergic neurons; test: Protection of primary dopaminergic neurons from 6-OHDA (THir neurons); type: cell-based, rat; settings: 6.25 uM 6-OHDA 40 minute
Protocol: Dissociated embryonic D14 rat ventral mesencephalic cells were used.
Dopaminergic neurons play a key role in the pathogenesis of Parkinson's disease and compounds enhancing survival of these cells have significant therapeutic potential. Dissociated embryonic D14 rat ventral mesencephalic cells were used to test the potential of EPO mimetic compounds to protect primary dopaminergic neurons. […] The cells were plated in 48-well poly-D-lysine coated plates using a microisland technique. The microislands were seeded into dry plates in 10 uL aliquots of 3000 cells/uL and incubated at 37° C. for 1 h to allow for adhesion. […] On day 3, the medium was replaced with 6.25 uM 6-hydroxydopamine (6-OHDA, Sigma) for a 40 minute incubation. The toxin was then removed and the cells were cultured for an additional 2 days. On day 5, the cells were fixed, permeabilized and stained for tyrosine hydroxylase-immunoreactive (THir) neurons.

[3] = tested on: human CD34+ hematopoietic stem cells; test: Proliferation of human CD34+ cells (ATP, CellTiterGlo); type: cell-based; settings: eight days in culture
Protocol: (§1) Compound 10 was tested at different concentrations for its ability to induce proliferation and differentiation of human CD34+ hematopoietic stem cells. Human CD34+ cells were purified by (FIG. 6A) immunomagnetic beads (>90% purity, purchased from Stem Cell Technologies) or (FIG. 6B) cell sorting (at Blood Systems Research Institute) and the cells were cultured in the presence of compounds for eight (FIG. 6A) or eleven (FIG. 6B) days. (FIG. 6A) The level of cell growth and survival was measured based on ATP levels (CellTiterGlo reagent), or (FIG. 6B) the expression level of CD235a was analyzed by flow cytometry as a marker for cell maturation. Cell survival was analyzed using the CellTiterGlo reagent to measure ATP levels as a marker of metabolically active cells that have not undergone apoptosis, and expression of CD235a as a marker of erythroid cell differentiation and as a specific marker for EPO-like erythropoietic activity.

[4] = tested on: human CD34+ hematopoietic stem cells; test: Erythroid differentiation of human CD34+ cells (CD235a, flow cytometry); type: cell-based; settings: eleven days in culture
Protocol: as §1

[5] = molecular target: T1, EPO receptor (Homo sapiens, UniProt P19235); test: EPO receptor phosphorylation in primary human fetal neural cells (phospho-EPOR ELISA); type: cell-based; parameters: endogenous in cells; host or cells: primary human fetal neural cells from micro-dissected fetal brain tissue (Advanced Bioscience Resources, Inc.); settings: 10 min incubation; for level of EPO receptor activation compared with recombinant human EPO: EPO 10 IU/ml
T1 sequence (P19235 25-508): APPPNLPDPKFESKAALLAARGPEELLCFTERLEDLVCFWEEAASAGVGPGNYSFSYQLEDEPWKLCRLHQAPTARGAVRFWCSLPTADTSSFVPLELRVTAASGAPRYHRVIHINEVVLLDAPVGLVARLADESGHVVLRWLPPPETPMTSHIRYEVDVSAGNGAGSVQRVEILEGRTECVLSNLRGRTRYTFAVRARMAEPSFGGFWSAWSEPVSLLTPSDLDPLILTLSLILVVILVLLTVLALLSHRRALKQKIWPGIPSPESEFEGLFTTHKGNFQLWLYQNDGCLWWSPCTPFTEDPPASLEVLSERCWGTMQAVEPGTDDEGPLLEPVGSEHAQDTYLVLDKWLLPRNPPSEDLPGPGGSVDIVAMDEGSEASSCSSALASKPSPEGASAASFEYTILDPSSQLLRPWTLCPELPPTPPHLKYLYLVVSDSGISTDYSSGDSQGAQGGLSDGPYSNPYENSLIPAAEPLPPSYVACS
Protocol: Primary micro-dissected fetal brain tissue was obtained from a commercial source (Advanced Bioscience Resources, Inc., Alameda, Calif.). Cultured primary human fetal neural cells (3 h, 1 day, 17 days, or 26 days in culture) were incubated with Compound 5, Compound 6, or controls for 10 min (FIG. 5A). Phospho-EPOR was detected by ELISA (R&D Systems). […] Human erythropoietic cell line TF-1 was cultured for 10 min in the presence of Compound 5, Compound 6, or the controls, and phospho-EPOR was detected by ELISA (R&D Systems). The data represent mean+SEM of triplicate cultures. […] The receptor activation results were consistent with functional cell based assays using primary human CD34+ bone marrow progenitor cells and erythroleukemia cell line TF-1.

[6] = molecular target: T1, EPO receptor; test: EPO receptor phosphorylation in TF-1 cells (phospho-EPOR ELISA); type: cell-based; parameters: endogenous in cells; host or cells: TF-1 human erythroleukemia cell line; settings: TF-1, 10 min
Protocol: Primary micro-dissected fetal brain tissue was obtained from a commercial source (Advanced Bioscience Resources, Inc., Alameda, Calif.). Cultured primary human fetal neural cells (3 h, 1 day, 17 days, or 26 days in culture) were incubated with Compound 5, Compound 6, or controls for 10 min (FIG. 5A). Phospho-EPOR was detected by ELISA (R&D Systems). […] Human erythropoietic cell line TF-1 was cultured for 10 min in the presence of Compound 5, Compound 6, or the controls, and phospho-EPOR was detected by ELISA (R&D Systems). The data represent mean+SEM of triplicate cultures.

[7] = tested on: rats; test: Kidney and CNS protection in rats with DMA + Cremophor EL toxicity; type: in vivo, rat; settings: DMA + CrEL 2.5 mL/kg each, IP
Protocol: High-dose N,N-dimethylacetamide (DMA)+ Cremophor EL (CrEL) (2.5 mL/kg each, IP) was used to induce acute CNS and organ toxicity, and the potential of Compound 5 to protect the rats was studied.

[8] = tested on: frataxin; test: Frataxin protein levels in primary human fetal neurons (ELISA); type: cell-based; settings: 28 days in culture, 24 h, relative to total protein
Protocol: The effects of the compounds on frataxin protein levels in cells were analyzed. […] Embryonic mouse cell line P19 was differentiated into neuronal cells in the presence of retinoic acid and frataxin levels were measured (FIG. 4A). Frataxin levels were measured after 24 h by multi-species frataxin-ELISA (MitoSciences) and compared to total protein levels. The data represent mean+SEM. Primary human fetal neurons (28 days in culture) were also incubated for 24 h in the presence of the compounds, and human frataxin levels were measured by ELISA (MitoSciences) and compared to total protein levels (FIG. 4B). The data represent mean+SEM of triplicate measurements. Compounds were also tested for their effects on frataxin levels in cells derived from patients with FRDA. Cultures of patient peripheral blood mononuclear cells (PBMCs) were also used to test the EPO mimetic compounds for frataxin enhancement in frataxin-deficient cells. Compound 1 and Compounds 5-6 enhanced frataxin levels in these patient cells at concentration 1 uM or lower.

[9] = tested on: TF-1 cells; test: TF-1 cell proliferation; type: cell-based, human; settings: at concentrations that provided significant neuroprotective effects
[10] = tested on: frataxin; settings: patients with chronic kidney disease, rhEPO infusion for anemia; cited from earlier work
[11] = tested on: frataxin; settings: 8 FRDA patients, open label pilot trial; cited from earlier work
[12] = following intravenous administration; cited from earlier work

Cc1cc(C)n2nc(SCCOc3ccc(Cl)cc3)nc2n1 [Example 1, 2-{[2-(4-chlorophenoxy)ethyl]sulfanyl}-5,7-dimethyl-[1,2,4]triazolo[1,5-a]pyrimidine]
effect on PC12 cell viability compared with rhEPO ([1]; compound at 1 uM, serum-free): at least a comparable effect on cell viability as rhEPO | level of PC12 cell protection compared with rhEPO at 10 U/ml ([1]; compound at 5 uM, serum-free): even higher level of protection than rhEPO | concentration at which significant protective effect on PC12 cells was observed ([1]; serum-free conditions): 1 µM | protection of dopaminergic neurons from 6-OHDA toxicity ([2]; 1 uM): significantly protected

Cc1cc(C)n2nc(SCCOc3ccc(F)c(Cl)c3)nc2n1 [Example 6, 2-{[2-(3-chloro-4-fluorophenoxy)ethyl]sulfanyl}-5,7-dimethyl-[1,2,4]triazolo[1,5-a]pyrimidine]
minimal effective concentration ([1]; serum-free conditions): < 5 µM

COc1ccc(NC(=O)CSc2nc3nc(C)cc(C)n3n2)cc1 [Example 10, 2-({5,7-dimethyl-[1,2,4]triazolo[1,5-a]pyrimidin-2-yl}sulfanyl)-N-(4-methoxyphenyl)acetamide]
CD34+ progenitor cell proliferation (ATP levels) [3]: dose-dependent induction of CD34+ progenitor cell proliferation | erythroid differentiation (CD235a expression) [4]: differentiation into erythroid cells expressing CD235a

Cc1cc(C)n2nc(OCCOc3ccc(Cl)cc3)nc2n1 [Example 11, 2-[2-(4-chlorophenoxy)ethoxy]-5,7-dimethyl-[1,2,4]triazolo[1,5-a]pyrimidine]
EPO receptor phosphorylation [5]: increased EPO receptor phosphorylation in a dose-dependent manner | level of EPO receptor activation compared with recombinant human EPO [5]: comparable to that induced by recombinant human EPO | EPO receptor activation (phospho-EPOR) [6]: did not activate EPO receptor | kidney-protective effect (hypoproteinemia in serum) [7]: reduced hypoproteinemia in serum | response to formalin injection [7]: normalized the response of the rats to formalin injection | frataxin protein levels [8]: increased frataxin protein levels | proliferation of TF-1 cells [9]: did not induce proliferation of TF-1 cells

Cc1cc(C)n2nc(OCCN(CCO)c3ccccc3)nc2n1 [Example 13, 2-{[2-({5,7-Dimethyl-[1,2,4]triazolo[1,5-a]pyrimidin-2-yl}oxy)ethyl](phenyl)amino}ethan-1-ol]
EPO receptor phosphorylation [5]: increased EPO receptor phosphorylation in a dose-dependent manner | level of EPO receptor activation compared with recombinant human EPO [5]: comparable to that induced by recombinant human EPO | EPO receptor activation (phospho-EPOR) [6]: did not activate EPO receptor | frataxin protein levels [8]: increased frataxin protein levels | proliferation of TF-1 cells [9]: did not induce proliferation of TF-1 cells

CCc1cc(CC)n2nc(CCCOc3ccc(Cl)cc3)nc2n1 [Example 28, 2-[3-(4-chlorophenoxy)propyl]-5,7-diethyl-[1,2,4]triazolo[1,5-a]pyrimidine]
minimal effective concentration ([1]; serum-free conditions): < 5 µM

rhEPO: recombinant human (rh)EPO, erythropoietin; positive control
increase in frataxin levels in peripheral blood mononuclear cells [10]: 2-3 fold | protection of dopaminergic neurons from 6-OHDA toxicity ([2]; 10 IU/ml): significantly protected | overall increase in frataxin in lymphocytes [11]: 24% | concentration in human cerebrospinal fluid lower than in circulation [12]: more than 1000 fold
